{
  "source": "paper PMC5095511",
  "about": "(Journal of nuclear medicine : official publication, Society …, 2016)",
  "key": {"[1]": {"system": "sEH", "assay": "Dynamic PET imaging of baboon brain, baseline and blocking with nor-fluoro-FNDP", "type": "in vivo, Papio anubis (baboon)"}, "[2]": {"target": "T1, sEH (Mus musculus, UniProt P34914)", "T1 sequence (P34914 1-554)": "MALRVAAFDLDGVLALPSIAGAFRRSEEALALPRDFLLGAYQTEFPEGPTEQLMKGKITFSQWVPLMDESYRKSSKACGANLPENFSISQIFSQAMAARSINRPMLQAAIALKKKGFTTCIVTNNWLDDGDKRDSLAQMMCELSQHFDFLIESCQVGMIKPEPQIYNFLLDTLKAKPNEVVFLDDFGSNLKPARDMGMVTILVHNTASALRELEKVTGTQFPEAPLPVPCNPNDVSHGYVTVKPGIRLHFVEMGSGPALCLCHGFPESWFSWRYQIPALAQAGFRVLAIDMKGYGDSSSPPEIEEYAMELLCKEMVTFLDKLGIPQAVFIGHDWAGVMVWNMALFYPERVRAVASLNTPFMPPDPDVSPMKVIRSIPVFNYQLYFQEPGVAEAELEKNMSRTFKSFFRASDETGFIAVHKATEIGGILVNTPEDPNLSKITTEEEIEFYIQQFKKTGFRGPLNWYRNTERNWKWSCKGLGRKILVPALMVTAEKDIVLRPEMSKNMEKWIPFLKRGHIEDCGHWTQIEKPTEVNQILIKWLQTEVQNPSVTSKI", "type": "in vivo, mouse (CD-1)", "settings": "CD-1 mouse brain, high dose of blocker nor-fluoro-FNDP"}, "[3]": {"system": "sEH", "type": "in vivo, mouse (sEH-KO, C57BL/6)", "settings": "baseline"}, "[4]": {"assay": "Baseline regional brain biodistribution of ^18F-FNDP in CD-1 mice", "type": "in vivo, mouse (CD-1)", "settings": "IV, mean ± SD, n=3"}, "[5]": {"assay": "Radiometabolite analysis of baboon arterial blood/plasma by RP-HPLC", "type": "in vivo, Papio anubis (baboon)", "settings": "90 min post-injection"}, "[6]": {"system": "human sEH", "settings": "read-out: human IC50; cited from earlier work"}},
  "note": "Where “and” joins values, the source holds several entries; their conditions need not be identical. Identical values can stand only once.",
  "data": [
    {"smiles": "O=C(NCCC(c1ccccc1)c1ccccc1)c1ccc([18F])nc1", "note": "[^18F-FNDP, N-(3,3-diphenylpropyl)-6-^18F-fluoronicotinamide]", "values": [
      {"measurement": "Blockade in all brain regions", "setting": "[1]; baboon PET", "result": 95, "unit": "%"},
      {"measurement": "VT in cerebellum (average)", "setting": "[1]; baboon, baseline, Logan method", "result": "7.9 ± 1.0"},
      {"measurement": "VT in frontal/temporal gyrus and hippocampus", "setting": "[1]; baboon, baseline, Logan method", "result": "> 10.1"},
      {"measurement": "VT in globus pallidus, corpus callosum, white matter, hypothalamus and thalamus", "setting": "[1]; baboon, baseline, Logan method", "result": "> 8.1"},
      {"measurement": "VT in insula, putamen, caudate and amygdala", "setting": "[1]; baboon, baseline, Logan method", "result": "> 11.5"},
      {"measurement": "Specificity of sEH radiolabeling", "setting": "[1]; both animal species (mouse and baboon)", "result": "up to 95%"},
      {"measurement": "Specific (blocked) binding in striatum, hippocampus and cortex", "setting": "[2]", "result": 90, "unit": "%"},
      {"measurement": "Regional uptake in striatum, hippocampus and cortex", "setting": "[3]; C57BL6 control mice, 60 min post-injection", "result": "~ 1 %ID/g"},
      {"measurement": "Reduction of uptake in sEH-KO mice as compared with controls", "setting": "[3]; 60 min after radiotracer injection", "result": "~ 90%"},
      {"measurement": "Regional brain uptake, cortex", "setting": "[4]; 5 min", "result": "4.69 ± 0.21", "unit": "%ID/g tissue"},
      {"measurement": "Regional brain uptake, hippocampus", "setting": "[4]; 5 min", "result": "3.29 ± 0.54", "unit": "%ID/g tissue"},
      {"measurement": "Regional brain uptake, hypothalamus", "setting": "[4]; 5 min", "result": "2.59 ± 0.18", "unit": "%ID/g tissue"},
      {"measurement": "Regional brain uptake, rest of brain", "setting": "[4]; 5 min", "result": "3.53 ± 0.11", "unit": "%ID/g tissue"},
      {"measurement": "Regional brain uptake, striatum", "setting": "[4]; 5 min", "result": "5.24 ± 0.45", "unit": "%ID/g tissue"},
      {"measurement": "Regional brain uptake, cerebellum", "setting": "[4]; 15 min", "result": "1.31 ± 1.01", "unit": "%ID/g tissue"},
      {"measurement": "Regional brain uptake, cortex", "setting": "[4]; 15 min", "result": "2.92 ± 0.36", "unit": "%ID/g tissue"},
      {"measurement": "Regional brain uptake, hippocampus", "setting": "[4]; 15 min", "result": "2.51 ± 0.34", "unit": "%ID/g tissue"},
      {"measurement": "Regional brain uptake, hypothalamus", "setting": "[4]; 15 min", "result": "1.66 ± 0.28", "unit": "%ID/g tissue"},
      {"measurement": "Regional brain uptake, rest of brain", "setting": "[4]; 15 min", "result": "2.37 ± 0.34", "unit": "%ID/g tissue"},
      {"measurement": "Regional brain uptake, striatum", "setting": "[4]; 15 min", "result": "3.29 ± 0.36", "unit": "%ID/g tissue"},
      {"measurement": "Regional brain uptake, cerebellum", "setting": "[4]; 30 min", "result": "1.09 ± 0.16", "unit": "%ID/g tissue"},
      {"measurement": "Regional brain uptake, cortex", "setting": "[4]; 30 min", "result": "2.07 ± 0.05", "unit": "%ID/g tissue"},
      {"measurement": "Regional brain uptake, hippocampus", "setting": "[4]; 30 min", "result": "1.76 ± 0.15", "unit": "%ID/g tissue"},
      {"measurement": "Regional brain uptake, hypothalamus", "setting": "[4]; 30 min", "result": "1.04 ± 0.08", "unit": "%ID/g tissue"},
      {"measurement": "Regional brain uptake, rest of brain", "setting": "[4]; 30 min", "result": "1.64 ± 0.06", "unit": "%ID/g tissue"},
      {"measurement": "Regional brain uptake, striatum", "setting": "[4]; 30 min", "result": "2.32 ± 0.15", "unit": "%ID/g tissue"},
      {"measurement": "Regional brain uptake, cerebellum", "setting": "[4]; 60 min", "result": "0.52 ± 0.07", "unit": "%ID/g tissue"},
      {"measurement": "Regional brain uptake, cortex", "setting": "[4]; 60 min", "result": "0.87 ± 0.14", "unit": "%ID/g tissue"},
      {"measurement": "Regional brain uptake, hippocampus", "setting": "[4]; 60 min", "result": "0.81 ± 0.15", "unit": "%ID/g tissue"},
      {"measurement": "Regional brain uptake, hypothalamus", "setting": "[4]; 60 min", "result": "0.51 ± 0.07", "unit": "%ID/g tissue"},
      {"measurement": "Regional brain uptake, rest of brain", "setting": "[4]; 60 min", "result": "0.71 ± 0.10", "unit": "%ID/g tissue"},
      {"measurement": "Regional brain uptake, striatum", "setting": "[4]; 60 min", "result": "1.07 ± 0.14", "unit": "%ID/g tissue"},
      {"measurement": "Regional brain uptake, cerebellum", "setting": "[4]; 90 min", "result": "0.29 ± 0.04", "unit": "%ID/g tissue"},
      {"measurement": "Regional brain uptake, cortex", "setting": "[4]; 90 min", "result": "0.45 ± 0.05", "unit": "%ID/g tissue"},
      {"measurement": "Regional brain uptake, hippocampus", "setting": "[4]; 90 min", "result": "0.43 ± 0.06", "unit": "%ID/g tissue"},
      {"measurement": "Regional brain uptake, hypothalamus", "setting": "[4]; 90 min", "result": "0.31 ± 0.05", "unit": "%ID/g tissue"},
      {"measurement": "Regional brain uptake, rest of brain", "setting": "[4]; 90 min", "result": "0.38 ± 0.04", "unit": "%ID/g tissue"},
      {"measurement": "Regional brain uptake, striatum", "setting": "[4]; 90 min", "result": "0.54 ± 0.07", "unit": "%ID/g tissue"},
      {"measurement": "Remaining parent compound in plasma radioactivity", "setting": "[5]", "result": "20% and ~ 20%"}
    ]},
    {"smiles": "O=C(NCCC(c1ccccc1)c1ccccc1)c1cccnc1", "note": "[nor-fluoro-FNDP, N-(3,3-diphenylpropyl)-nicotinamide]", "values": [
      {"measurement": "IC50", "setting": "[6]", "result": "[…]"}
    ]}
  ]
}
